Literature values as cited in paper PMC7553790 (The Journal of Experimental Medicine, 2020).
Read-outs that look alike come from different tables or passages of the source.

System: Aβ42
Conditions: cell-based studies

IC50 (read-out: IC50 of decreasing Aβ42, ref Imbimbo et al., 2007)	IC50 (read-out: IC50 of Aβ42, ref Rogers et al., 2012)	SMILES
3.6 µM	–	O=C(O)C1(c2ccc(-c3ccc(Cl)c(Cl)c3)c(F)c2)CC1 [CHF5074, 1-(3′,4′-Dichloro-2-fluoro[1,1′-biphenyl]-4-yl)-cyclopropanecarboxylic acid]
–	> 0.02 µM	O=C(O)[C@H](CC1CCC1)c1cc(Cl)c(OCC(F)(F)F)c(-c2ccc(C(F)(F)F)cc2)c1 [EVP-0015962]
